The test system of data set [1] is Salmonella outer membrane. The data set can be described thus: Outer membrane permeabilization (NPN fluorescence). The data set is classed as cell-based, Salmonella enterica serovar Typhimurium strain SL1344. The arrangement: key to Outer membrane permeation: +++: Effect strength is represented by additional (+) signs.; ++: Effect strength is represented by additional (+) signs.; Effect strength is represented by additional (+) signs. As to conditions: for Outer membrane permeation: ASO conjugated to the carrier peptide, 10 µM, NPN fluorescence, summary grade; for Outer membrane permeabilization, NPN fluorescence (in words): KFF-ASOs 10 µM, CTAB 10 µM, PMXB 0.4 µM, added after 14 min. From the text:
Because the negASOs are ineffective in bacterial cells despite their activity in cell-free systems, we investigated if these ASOs affected the ability of the KFF carrier peptide to induce OM permeabilization. Therefore, we used the hydrophobic fluorophore N-phenylnaphthylamine (NPN), a dye that turns fluorescent after binding to hydrophobic regions within cell membranes. This only occurs in cells with a compromised OM ([Ghosh et al. 2016]; [Ellis et al. 2019]). […] However, when conjugated to negASOs, the KFF carrier is unable to permeabilize the OM (Fig. 10). This could potentially be due to electrostatic interactions between the negASOs and the positively charged KFF.
The experiments were performed by modifying previously published protocols ([Ghosh et al. 2016]; [Ellis et al. 2019]; [Zheng et al. 2021]). Salmonella (WT SL1344, JVS-1574) were grown overnight in 4 mL MHB medium at 37°C (with shaking at 220 rpm). Then the culture was diluted 1:100 and grown until OD600 0.5 (∼2 × 10^8 cfu/mL). This culture was harvested and washed two times with 5 mM HEPES and further diluted to OD600 0.2 in 5 mM HEPES supplemented with 5 mM Glucose (pH 7.2). These cells were then incubated with NPN (Sigma) at a final concentration of 10 µM. One hundred and ninety microliters of NPN-treated cells were transferred into 96-well back plates with transparent bottoms and fluorescence (excitation = 350 nm, emission = 420 nm) was recorded for 60 min (reading was performed every minute) using a Synergy H1 plate reader (Biotek). On the 14th minute, 10 µL of the test compounds (10 µM final concentration) was added into the wells. CTAB (Sigma) 10 µM (final concentration) or PMXB (Sigma) (final concentration of 0.4 µM) were used as positive controls, while water was used as negative control. The fluorescence of the wells was monitored using the same settings as above. The plots were created using OrginPro 2023. The experiment was performed twice and Figure 10 is a representative example of two independent experiments.

Data set [2] deals with AcpP::3xFLAG. The data set can be described thus: Western blot of AcpP::3xFLAG protein levels after ASO treatment. The data set is classed as cell-based, Salmonella enterica serovar Typhimurium SL1344 AcpP::3xFLAG. Also on record: key to AcpP protein reduction: +++: Effect strength is represented by additional (+) signs.; ++: Effect strength is represented by additional (+) signs.; Effect strength is represented by additional (+) signs. As to conditions: for AcpP protein levels after treatment (in words): KFF-ASO 5 µM, 30, 60, 120 min; for AcpP protein reduction: KFF-ASO constructs at 5 µM, 120 min, summary grade. The text has this:
We have previously shown that PNAs targeting acpP lead to rapid depletion of the target transcript ([Hör et al. 2022]; [Popella et al. 2022]; [Jung et al. 2023]), although this is not a universal phenomenon and varies from transcript to transcript ([Popella et al. 2022]). In other words, an ASO might block target protein synthesis without substantially impacting mRNA levels. Therefore, we wanted to test if the different ASO modalities affect AcpP protein levels in cellulo despite their inability to deplete the acpP transcript. We took advantage of Salmonella expressing a FLAG-tagged AcpP (AcpP::3xFLAG) protein from its native locus. First, we exposed the bacterial cells to PMO and PNA for 30, 60, or 120 min (Fig. 9A) to determine the best time point for our analysis.
Salmonella WT and SL1344 AcpP::3xFLAG were grown overnight in noncation adjusted MHB. Bacterial cultures were diluted 1:100, grown to OD600 0.5, and subsequently diluted to ∼10^6 cfu/mL in MHB. Then, 1.9 mL of each diluted bacterial solution was transferred into 5 mL low-binding tubes, preincubated at 37°C for 10 min, and treated with 100 µL of ASOs to adjust a final concentration of 5 µM. Water was added as negative control. The treatment with PNA and PMO was performed with aeration at 37°C and 220 rpm shaking for 30, 60, and 120 while for all other ASOs, they were treated for 120 min only. Subsequently, the cells were collected by centrifugation at 4°C and 16,000g for 5 min, resuspended in 1× Protein Loading Buffer (62.6 mM Tris–HCl pH 6.8, 2% SDS, 0.1 mg/mL bromophenol blue, 15.4 mg/mL DTT, 10% glycerol) and denatured at 95°C for 10 min.
For detection of AcpP::3xFLAG protein levels, samples were separated on a 12% SDS-PAA gel and transferred onto a nitrocellulose membrane via semi-dry western blotting. The membrane was probed with an α-FLAG antibody (Sigma; 1:1000 in 1× TBS-T containing 3% BSA) at 4°C overnight. After washing in 1× TBS-T, the membrane was incubated with a secondary HRP-conjugated antimouse antibody (Thermo Scientific; 1:5000 in 1× TBS-T containing 1% BSA) at RT for 1 h. Excessive antibody was removed by repeated wash-steps in 1× TBS-T, and the membrane was developed by an Amersham ECL Select Western Blotting Detection Reagent Kit (Cytiva).
A general note: A western blot detects proteins with antibodies after separation by electrophoresis.

In the case of “PMO: phosphorodiamidate morpholino 10mer ASO, sequence CTCATACTCT, targeting acpP −5 to +5 (all phosphorodiamidate morpholino (PMO))”, in data set [1], the Outer membrane permeation entry is recorded as “++” and the “Outer membrane permeabilization, NPN fluorescence (in words)” value is listed as “this ability is retained upon conjugation”. In data set [2], the “AcpP protein levels after treatment (in words)” value is “gradual depletion of AcpP, albeit less pronounced than PNA” and the AcpP protein reduction result is given as “+”.
As to “PNA: peptide nucleic acid 10mer ASO, sequence CTCATACTCT, targeting acpP −5 to +5 (all peptide nucleic acid (PNA))”, in data set [1], the Outer membrane permeation entry is given as “++” and the “Outer membrane permeabilization, NPN fluorescence (in words)” value is “this ability is retained upon conjugation”. Also, in data set [2], the “AcpP protein levels after treatment (in words)” value is “depletion in AcpP levels can be observed from 60 min post-treatment onward” and the AcpP protein reduction result is recorded as “++”.

Source of the values: paper PMC11098465, “A comparative analysis of peptide-delivered antisense antibiotics using diverse nucleotide mimics” (RNA, 2024).
